Measurements taken from patent publication US7863415B2 (The Regents of the University of California, priority 2004, dated 2011).
Entries after “also recorded” stand apart in the source; their conditions may differ. Like-named read-outs stand apart in the source and are kept apart here.

Experiments:
U87 glioma cells [1] = assay: Glioma cell proliferation, manual cell counts with trypan blue; format: cell-based, human; details: glioma cells
Method: C(5)-amiloride glycine conjugate (C5am-Gly) inhibits NHE1 in U87 glioma cells and is antiproliferative. […] The inhibitory activity of C5am-Gly against NCX was tested and a systematic log dose screen of C5am-Gly against a panel of glioma cells and primary astrocytes was performed.
Manual cell counts with dye exclusion assays. Identical concentrations of glioma cells can be plated on 60 mm dishes and grown until 50% confluent. Following drug treatments, media containing floating cells can be collected in suspension. Adherent cells can be rinsed in calcium- and magnesium-free phosphate-buffered saline (PBS-CMF) and removed by incubation with 0.25% v/v trypsin for 5 minutes (37° C.). Cell suspensions can be combined with the floating fraction and centrifuged at 350×g for 5 minutes. The resulting pellet (one per dish) can be resuspended in equal volumes of PBS-CMF with 0.4% trypan blue and/or 500 nM Sytox Green. 10 μL aliquots of the suspension can be plated on a hemocytometer, and cells can be counted 5 minutes after staining. Simultaneous staining of cells with trypan (TB) and Sytox Green (SG) can be visualized by switching between visible light and fluorescein green.

astrocytes = format: cell-based; details: amiloride ≧500 μM, 48-72 hours
From the text: Cell culture. The five human glioma cell lines can be obtained from the American Tissue Culture Collection (ATCC). Primary cultures of rat astrocytes can be isolated from the cerebral cortex of neonatal rats (0-1 day old). For measurements of [H^+]i, [Ca^2+]i, and [Na^+]i, cells can be grown on glass coverslips coated with rat tail collagen type I.

[2] = tested on: intracerebral U87 glioma xenografts; assay: Intracerebral U87 glioma xenografts in athymic rats, amiloride infusion by Alzet pump, tumor volume by NMR and histology; format: in vivo, rat; details: for Doubling time, day postimplant 10: before drug infusion (day 12-17); for Doubling time, day postimplant 12 / Doubling time, day postimplant 15 / Doubling time, day postimplant 17: drug infusion day 12-17
Method: U87 glioma cells were stereotaxically implanted into the corpus striatum of brains of athymic (i.e., T-cell deficient) rats and characterized as an in vivo treatment model. Nissl-stained coronal sections were used to calculate tumor volumes from day 4 to day 28 post-implantation. T1-weighted NMR images were acquired from a separate set of animals to serially measure tumor volumes of intracerebral U87 glioma xenografts.
BrdU was injected intraperitoneally 3 h prior to perfusion fixation with paraformaldehyde in deeply anesthetized animals.

U87 cells = assay: Intracellular translocation into U87 cells by fluorescence microscopy; details: 50 μM; 90 and 180 min; 380 nm excitation, 510 nm emission
From the text: Fluorescence Microscopy. […] Excitation light was provided by a xenon arc lamp coupled to the Polychrome IV scanning monochromator (Till Photonics; Grafelfing, Germany) that alternately excites with different wavelengths. Excitation light was delivered by fiber optics to cells through the epifluorescence port of a Nikon E600 microscope coupled to a Nikon Fluor 60× water immersion lens. The detector was an Orca II-ER CCD digital camera (Hamamatsu USA; Bridgewater, N.J.), which is controlled by C-Imaging Simple PCI software (Compix; Cranberry Township, Pa.).
Intracellular emission intensities were collected in regions of interest (ROI) from an average of 4-8 cells/field using Simple PCI imaging software. […] Images were captured as TIFF files (C-imaging Simple PCI software), and light and fluorescent images of the same field were imported in Photoshop 6.0 and vector graphics added using Illustrator 9.0.1 (Adobe; San Jose, Calif.).

U87 glioma cells [3] = tested on: U87 glioma cells
NHE1 [4] = molecular target: T1, NHE1 (Rattus norvegicus, UniProt P26431); details: read-out: IC50 of amiloride (NHE); primary rat astrocytes; cited from earlier work
T1 construct: in primary rat astrocytes (6 μM) (McLean et al., supra); host or cells: primary rat astrocytes
T1 sequence (P26431 whole entry): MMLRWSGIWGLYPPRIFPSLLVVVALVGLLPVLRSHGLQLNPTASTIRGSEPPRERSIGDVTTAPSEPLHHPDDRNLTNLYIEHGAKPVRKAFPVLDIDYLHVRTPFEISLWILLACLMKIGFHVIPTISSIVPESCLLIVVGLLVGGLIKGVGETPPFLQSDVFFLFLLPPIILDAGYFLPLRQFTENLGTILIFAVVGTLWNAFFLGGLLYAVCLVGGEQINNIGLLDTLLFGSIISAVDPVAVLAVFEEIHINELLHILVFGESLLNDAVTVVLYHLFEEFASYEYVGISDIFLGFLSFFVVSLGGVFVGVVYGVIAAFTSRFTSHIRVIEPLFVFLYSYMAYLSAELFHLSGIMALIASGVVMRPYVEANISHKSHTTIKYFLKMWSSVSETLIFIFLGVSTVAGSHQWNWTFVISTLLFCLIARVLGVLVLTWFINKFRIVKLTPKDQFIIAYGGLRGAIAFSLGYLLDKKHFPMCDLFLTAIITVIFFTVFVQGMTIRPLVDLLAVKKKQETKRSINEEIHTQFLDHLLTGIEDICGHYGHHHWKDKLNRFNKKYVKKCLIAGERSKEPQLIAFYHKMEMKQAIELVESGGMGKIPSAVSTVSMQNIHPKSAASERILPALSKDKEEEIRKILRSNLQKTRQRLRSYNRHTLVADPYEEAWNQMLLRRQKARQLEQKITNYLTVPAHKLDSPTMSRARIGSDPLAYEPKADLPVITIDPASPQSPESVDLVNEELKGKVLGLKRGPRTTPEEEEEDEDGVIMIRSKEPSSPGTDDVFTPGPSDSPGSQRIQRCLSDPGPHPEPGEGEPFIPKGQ

NCX = details: read-out: IC50 for NCX inhibition; cited from earlier work
NHE1 and NCX = NHE1 and NCX inhibitors from the literature; cited from earlier work
U87 glioma cells [5] = assay: Glioma cell death, manual cell counts with trypan blue exclusion
[6] = Neuropathological and neurobehavioral effects of intracerebral/intrathecal amiloride infusion in rats
Method: Rats were subjected to a “probe” trial following the last acquisition trial in MWM assessment following tumor and drug administration. The hidden platform was removed and the rat was allowed to swim for 60 seconds. The duration of time spent in the “target” quadrant (formerly containing the platform) was recorded.

NHE1 [7] = molecular target: T2, NHE1 (Homo sapiens, UniProt P19634); assay: NHE1 inhibition: sodium-dependent pHi recovery in BCECF-loaded U87 glial cells after ammonium chloride pre-pulse; format: cell-based; parameters: Sodium-dependent proton extrusion in U87 glial cells and in primary astrocytes is mediated by the type 1 sodium proton exchanger (NHE1); endogenous in cells; host or cells: U87 human glioma cells
T2 sequence (P19634 whole entry): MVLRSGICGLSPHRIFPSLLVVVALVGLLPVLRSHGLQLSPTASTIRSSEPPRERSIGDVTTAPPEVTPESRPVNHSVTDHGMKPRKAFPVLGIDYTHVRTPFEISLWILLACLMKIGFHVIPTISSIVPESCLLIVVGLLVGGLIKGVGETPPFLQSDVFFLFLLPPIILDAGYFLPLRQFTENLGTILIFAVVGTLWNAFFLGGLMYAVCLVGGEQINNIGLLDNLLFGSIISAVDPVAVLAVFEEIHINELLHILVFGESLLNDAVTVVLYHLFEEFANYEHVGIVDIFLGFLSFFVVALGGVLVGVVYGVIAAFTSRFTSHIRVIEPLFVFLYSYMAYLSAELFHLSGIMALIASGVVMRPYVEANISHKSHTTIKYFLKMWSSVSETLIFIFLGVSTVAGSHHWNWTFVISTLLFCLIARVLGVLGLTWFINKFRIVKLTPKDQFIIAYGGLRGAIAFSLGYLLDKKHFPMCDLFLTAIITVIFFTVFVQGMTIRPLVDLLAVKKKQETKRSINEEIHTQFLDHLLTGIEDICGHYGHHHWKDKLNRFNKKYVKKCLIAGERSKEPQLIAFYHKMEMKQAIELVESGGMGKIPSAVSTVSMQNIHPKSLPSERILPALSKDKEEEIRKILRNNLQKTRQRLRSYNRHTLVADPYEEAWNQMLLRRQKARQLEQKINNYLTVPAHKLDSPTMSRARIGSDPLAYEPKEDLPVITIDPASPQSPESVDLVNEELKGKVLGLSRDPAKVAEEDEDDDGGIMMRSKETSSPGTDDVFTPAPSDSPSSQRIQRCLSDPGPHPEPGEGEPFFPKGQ
Method: Intracellular pH Measurements. U87 glial cells were grown on glass coverslips and incubated for 30 minutes at 37° C. with the pH-sensitive dye, 2′,7′-bis(2-carboxyethyl)-5(6)-carboxyfluorescein-AM (BCECF-AM; Molecular Probes, OR). Cells were rinsed with HEPES Ringer buffer twice and maintained at 37° C. for an additional 15 minutes to permit intracellular hydrolysis of the AM ester; trapping BCECF within the cells. Cells on coverslips were placed in a Hitachi F2000 fluorescent spectrophotometer and excited at 440 and 507 nm with fluorescent emissions recorded at 535 nm (Hegde et al., J. Pharmacol. Exp. Ther., 310:67-74 (2004)).
NHE inhibition by compounds 3a and 3c was evaluated using intracellular pH (pHi) measurements in the U87 human glial cell line (Hegde et al., supra). Cells loaded with BCECF were then acidified using the ammonium chloride pre-pulse method (Roos et al., Physiol Rev, 61:296-434 (1981)). The subsequent sodium-dependent recovery of pHi by these cells in the absence of bicarbonate was monitored using a spectrofluorometer. Sodium-dependent proton extrusion in U87 glial cells and in primary astrocytes is mediated by the type 1 sodium proton exchanger (NHE1) (McLean et al., supra; Hegde et al., supra) and was monitored in the presence or absence of compound 3a or 3c.
IC50 drug determinations for NHE1. This method utilizes spectrofluorometric measurements of [H^+]i as described above. The ammonium chloride prepulse method can be used to acidify cells in the presence of HR that is sodium-substituted with NMDG. Perfusion of the acidified cells with HR that contains sodium causes activation of NHE1 that is inhibited in a concentration-dependent fashion as described in McLean et al., supra.

U87 glioma cells [8] = details: Hegde et al. 2004; cited from earlier work
NHE1 [9] = molecular target: T2, NHE1; parameters: host or cells: CHO cell lines; details: CHO cell lines, published values; read-out: IC50 of cariporide (NHE); cited from earlier work
U87 [10] = details: cited from earlier work
T98G [11] = details: cited from earlier work
U373 = details: cited from earlier work
U87 [12] = details: cited from earlier work; remark: listed apart in the source
T98G [13] = details: cited from earlier work; remark: listed apart in the source
A172 = details: cited from earlier work
[14] = intracerebral amiloride infusion
[15] = intrathecal infusion, tumor-implanted rats

## NC(N)=NC(=O)c1nc(Cl)c(N)nc1N [Amiloride, 3,5-diamino-6-chloro-N-(diaminomethylene)pyrazinecarboxamide]
U87 glioma cells [1]
  Glioma Effect: antiproliferative concentration: < 50 µM
astrocytes
  Killing of astrocytes: not astrocytes
[2]; 10 mM amiloride reservoir
  Doubling time, day postimplant 10: 3.07
  Doubling time, day postimplant 12: 3.40
  Doubling time, day postimplant 15: 3.99
  Doubling time, day postimplant 17: 4.44
[2]; 10 mM reservoir, 28 pmol/24 h, 0.14 nmol
  Effect on tumor growth rate: did not affect
[2]; 100 mM amiloride reservoir
  Doubling time, day postimplant 10: 1.23
  Doubling time, day postimplant 12: 1.98
  Doubling time, day postimplant 15: 4.58+
  Doubling time, day postimplant 17: 11.65++
[2]; 100 mM reservoir, 276 pmol/24 h for 5 days, 1.4 nmol total
  Increase of tumor doubling time compared to vehicle-treated animals: 3 fold
[2]; [14]
  Effect on normal brain cell types (histology): unaffected
  Glioma cell death in poorly vascularized tumor regions (eosin staining): necrotic glioma cell death
[2]; intracerebral infusion at relatively high doses vs vehicle
  Effect on tumor growth rates: significantly slowed
U87 cells
  Intracellular accumulation in U87 cells: intracellular accumulation; also recorded: rapid cell permeation
U87 glioma cells [3]
  Glioma Effect: cytotoxic concentration: ≥ 500 µM
NHE1 [4]
  IC50: 6 µM
NCX
  IC50: 500 µM
NHE1 and NCX
  Rel. Activity: NHE > NCX
U87 glioma cells [5]; U87 glioma cells, C2am-Gly within 24 h
  Concentration that killed U87 glioma cells: 500 µM
U87 glioma cells [5]; glioma cells, amiloride within 48-72 hours
  Concentration that killed glioma cells: ≥ 500 µM
[6]; Sprague-Dawley rats, 276 pmol/24 h intracerebral, 12 days
  Neuropathological changes in normal brain cell types: not observed; also recorded: no demonstrable neuropathology
[6]; [15]
  Balance and fine motor coordination (beam walk): did not affect
  Memory in a spatial learning task (probe trial): did not affect
NHE1 [7]; U87 cells
  Reversal of NHE1 inhibition after removal of compound: slow and incomplete recovery; also recorded: prolonged and an incomplete recovery

## CC(C)c1ccc(C(=O)NC(=N)N)cc1S(C)(=O)=O [Cariporide]
U87 glioma cells [3]
  Cytotoxicity to glioma cells: cytotoxic
U87 glioma cells [8]
  Killing of glioma cells by selective NHE inhibitor: do not kill glioma cells
NHE1 [9]
  IC50: 0.03 µM
NHE1 [7]; NHE inhibition relative to amiloride = 1
  Relative Potency: 676
NHE1 [7]; U87 glial cells, read-out: IC50 of cariporide (NHE inhibition)
  IC50: 0.074 µM

## Cn1nnc2c(C(N)=O)ncn2c1=O [Temozolamide]
U87 [10]
  Temozolamide sensitivity: yes
T98G [11]
  Temozolamide sensitivity: no
U373
  Temozolamide sensitivity: yes

## CN[C@@H]1C[C@H]2O[C@@](C)([C@@H]1OC)n1c3ccccc3c3c4c(c5c6ccccc6n2c5c31)C(=O)NC4 [staurosporine]
U87 [12]
  G1 arrest with staurosporine: yes
T98G [13]
  G1 arrest with staurosporine: yes
A172
  G1 arrest with staurosporine: yes
